Here are results for three molecules from patent US20160058060A1, “FOOD SALT PRODUCT” (SMART SALT INC, priority 2013, published 2016).

The conditions of series [1]: cited from earlier work.
For series [2] the following is noted: aqueous solution; cited from earlier work.
Series [3] deals with L. monocytogenes. Nature of the series: Microbial growth/survival of L. monocytogenes in frankfurter samples. The class given is cell-based. The settings on record: equal dosage levels, storage 5° C., no nitrites. On the procedure: No nitrites were added to the samples. […] The frankfurters were subject to sensory testing.
Series [4] has as its system B. cereus and B. subtilis. Nature of the series: Bacillus spp. counts in inoculated bread post baking. The class given is cell-based. The settings on record: salt level 1.2% w/w, immediately post baking and after cooling. As for the experimental part:
A salt sample according to Example 7 of the invention was used to test the microbial growth in bread. […] Inoculated and uninoculated loaves (controls) were microbiologically analyzed over 6 days storage at 21° C. and 25° C. Analysis was carried out on day 0 (post baking and after cooling), day 1, day 2 and day 6. The results highlighted two main differences between the two salt types.

The subject of series [5] is total aerobic viable counts. Nature of the series: Total aerobic viable counts in un-inoculated control bread during storage. It counts as cell-based. The settings on record: end of storage (Day 6), both storage temperatures (21° C. and 25° C.). As for the experimental part: A salt sample according to Example 7 of the invention was used to test the microbial growth in bread. […] Inoculated and uninoculated loaves (controls) were microbiologically analyzed over 6 days storage at 21° C. and 25° C. […] The results highlighted two main differences between the two salt types.

Structures are written as SMILES. Read-outs that look alike come from different tables or passages of the source.

As for `[Cl-].[K+]` [KCl, potassium chloride], the Aqueous solubility in series [1] (Temperature 0 °C) was 21.74 mass-% of solute; in series [1] (Temperature 20 °C), 25.39 mass-% of solute; in series [1] (Temperature 40 °C), 28.59 mass-% of solute; in series [1] (Temperature 60 °C), 31.40 mass-% of solute; in series [1] (Temperature 80 °C) it was 33.86 mass-% of solute; in series [1] (Temperature 100 °C) it was 36.05 mass-% of solute.
Consider `[Cl-].[Cl-].[Mg+2]` [MgCl2, magnesium chloride], for which, in series [2], the stability constant entry is recorded as “zero”.
Take `[Cl-].[Na+]` [NaCl, sodium chloride]: the “storage time until increase of L. monocytogenes to a count of 4 Log” value in series [3] turned out to be 23 days. For the same molecule, in series [4], the “log drop in Bacillus spp. counts” value was “up to 3.4 Log”. Further, the “total aerobic viable counts” value in series [5] is 10^4-10^5 cfu/g.
